These results are taken from paper PMC5576918, “Small molecule inhibition of apicomplexan FtsH1 disrupts plastid biogenesis in human pathogens” (eLife, 2017).

Each structure is given as a SMILES string. Read-outs that look alike come from different tables or passages of the source.

One test concerns the target T1, PfFtsH1 (Plasmodium falciparum, UniProt Q8I526).
T1 construct: gene PF3D7_1239700; His6-SUMO-PfFtsH1_91-612-GST (AAA+ ATPase and peptidase domains, lacking transmembrane domain)
The test can be described thus: ATP-dependent FITC-casein proteolysis by purified recombinant PfFtsH1, fluorescence. It is filed as biochemical.

Test [1] concerns P. falciparum. The test can be described thus: microbe, parasite or virus in culture. The arrangement: species or system P. falciparum asexual blood stages in human erythrocytes; Blood-stage parasite growth inhibition over two lytic cycles, YOYO-1 parasitemia by flow cytometry. The following applies: Plasmodium falciparum, Erythrocyte, 96 h, read-out: 96h. How it is done:
(§1) For P. falciparum EC50 calculations, growth assays were performed in 96 well plates containing serial dilution of drugs in triplicate. Media was supplemented with 200 uM IPP as indicated. Growth was initiated with ring-stage parasites (synchronized with 5% sorbitol treatment) at 1% parasitemia and 1% hematocrit. […] Parasitized cells were stained with 50 nM YOYO-1 (Invitrogen) overnight at room temperature and the parasitemia was determined by flow cytometry (BD Accuri C6 Sampler). Data were analyzed by BD Accuri C6 Sampler software. […] A single natural product antibiotic, actinonin, matched our criteria (Figure 1a) ([Gordon et al., 1962]). […] Because isoprenoid precursor biosynthesis is the only essential function of the apicoplast in blood-stage P. falciparum, any disruption of the apicoplast, including complete loss of the organelle, can be rescued by addition of the isoprenoid precursor, isopentenyl pyrophosphate (IPP), in the growth media ([Yeh and DeRisi, 2011]). […] Compared to chloramphenicol, actinonin clearly had more rapid antimalarial activity.

Test [2] concerns P. falciparum. As to the kind of experiment: microbe, parasite or virus in culture. The following applies: Plasmodium falciparum, Erythrocyte, 48 h, read-out: 48h. The arrangement: species or system P. falciparum asexual blood stages in human erythrocytes; Blood-stage parasite growth inhibition over one lytic cycle, YOYO-1 parasitemia by flow cytometry. How it is done: as §1

T1 sequence (Q8I526 entry or part of it): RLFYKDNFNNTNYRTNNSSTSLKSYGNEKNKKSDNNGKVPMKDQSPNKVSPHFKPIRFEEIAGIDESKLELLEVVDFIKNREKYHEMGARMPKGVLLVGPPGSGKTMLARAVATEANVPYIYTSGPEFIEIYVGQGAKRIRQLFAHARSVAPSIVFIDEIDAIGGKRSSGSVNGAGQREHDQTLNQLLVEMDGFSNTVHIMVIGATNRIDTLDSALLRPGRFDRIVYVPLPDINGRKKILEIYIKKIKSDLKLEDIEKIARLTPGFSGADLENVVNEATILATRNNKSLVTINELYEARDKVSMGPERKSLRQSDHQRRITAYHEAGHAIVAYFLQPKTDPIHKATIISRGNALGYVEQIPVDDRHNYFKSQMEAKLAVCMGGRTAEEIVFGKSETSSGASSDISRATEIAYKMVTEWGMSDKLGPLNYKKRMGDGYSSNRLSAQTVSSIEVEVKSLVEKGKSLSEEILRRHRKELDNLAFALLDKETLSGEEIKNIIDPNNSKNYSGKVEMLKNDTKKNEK

Broadly, the IC50 is the concentration at which inhibition is half-maximal. Consider `CCCCC[C@H](CC(N)=O)C(=O)N[C@H](C(=O)N1CCC[C@H]1CO)C(C)C` [actinamide], for which the IC50 on PfFtsH1 amounted to 7.3 µM.
Consider `CO[C@@H]1[C@@H](OC(N)=O)[C@@H](O)[C@H](Oc2ccc3c(O)c(NC(=O)c4ccc(O)c(CC=C(C)C)c4)c(=O)oc3c2C)OC1(C)C` [novobiocin], for which the EC50 in the test on P. falciparum [1] worked out at 36 µM; in the test with P. falciparum [2], 40 µM.
Regarding `CCn1cc(C(=O)O)c(=O)c2cc(F)c(N3CCNCC3)nc21` [enoxacin], the EC50 with P. falciparum [1] was 5.7 µM; in the test with P. falciparum [2], > 50 µM.
For `O=C(O)c1cn(C2CC2)c2cc(N3CCNCC3)c(F)cc2c1=O` [ciprofloxacin] the same measures were 6 µM and 24 µM.
For `CO[C@H]1/C=C/O[C@@]2(C)Oc3c(C)c(O)c4c(O)c(c(/C=N/N5CCN(C)CC5)c(O)c4c3C2=O)NC(=O)/C(C)=C\C=C\[C@H](C)[C@H](O)[C@@H](C)[C@@H](O)[C@@H](C)[C@H](OC(C)=O)[C@@H]1C` [rifampin], the figures for the EC50 in the test with P. falciparum [1] and in the test on P. falciparum [2] were 2 µM and 1 µM, respectively.
The corresponding values for `CCCCC[C@H](CC(=O)NO)C(=O)N[C@H](C(=O)N1CCC[C@H]1CO)C(C)C` [actinonin] are 2.7 µM and 3.2 µM.
For `CC(C)C(=O)OC[C@H]1O[C@@H](n2ccc(N)nc2=O)[C@](C)(F)[C@@H]1OC(=O)C(C)C` [mericitabine] the same measures were > 200 µM and > 200 µM.
The corresponding values for `C[C@H]1COc2c(N3CCN(C)CC3)c(F)cc3c(=O)c(C(=O)O)cn1c23` [levofloxacin] are 16 µM and 70 µM.
Turning to `Nc1ccn([C@@H]2O[C@H](CO)[C@@H](O)[C@H]2F)c(=O)n1` [2'deoxy-2-F-cytidine], the EC50 in the test with P. falciparum [1] and in the test with P. falciparum [2] was > 200 µM in each case.
Consider `CCn1cc(C(=O)O)c(=O)c2cc(F)c(N3CCNCC3)cc21` [norfloxacin], for which the EC50 in the test with P. falciparum [1] stood at 10 µM; with P. falciparum [2], 40 µM.
